The target in assay [1] is T1, recombinant Mpro^CoV-2 (SARS-CoV-2 M^pro) (Severe acute respiratory syndrome coronavirus 2, UniProt P0DTD1).
T1 construct: gene rep
As to the kind of experiment: FRET peptide cleavage assay (Dabcyl-KTSAVLQSGFRKME-Edans). It counts as biochemical. From the text: FRET peptide cleavage assay (Dabcyl-KTSAVLQSGFRKME-Edans) on recombinant Mpro^CoV-2 (SARS-CoV-2 M^pro)

Assay [2] has as its target T2, His-tagged recombinant Mpro^CoV-2 (Severe acute respiratory syndrome coronavirus 2, UniProt P0DTD1).
T2 construct: gene rep
The experiment in a line: microscale thermophoresis binding check. The following applies: 50 nM labelled protein, PBS-T, 2.5% DMSO, 25 °C, 60-90 min incubation; tested concentration, not a Kd. The text has this:
microscale thermophoresis binding check on His-tagged recombinant Mpro^CoV-2
(In MST a laser heats a spot of the sample, and binding alters the fluorescence response.)

Broadly, the inhibition is the relative decrease from the control value, in per cent.

For the compound `NC(=O)CCC(=O)N(CC(=O)NC1CCCCC1)[C@H](CB(O)O)c1ccccc1` [3a, (R)-(2-(4-Amino-N-(2-(cyclohexylamino)-2-oxoethyl)-4-oxobutanamido)-2-phenylethyl)boronic Acid], in assay [1], the inhibition at 20 µM worked out at 23.4%. The same measure, in the same setting: the result for `NC(=O)CCCC(=O)N(CC(=O)NCc1ccccc1)[C@H](CB(O)O)c1ccccc1` [3ea, (R)-(2-(5-Amino-N-(2-(benzylamino)-2-oxoethyl)-5-oxopentanamido)-2-phenylethyl)boronic Acid] reads 23.7%.

Consider `NC(=O)CCCC(=O)N(CC(=O)NCc1ccccc1)[C@@H](CB(O)O)c1ccccc1` [3eb, (S)-(2-(5-Amino-N-(2-(benzylamino)-2-oxoethyl)-5-oxopentanamido)-2-phenylethyl)boronic Acid], for which the “Ligand Concentration Displaying: / Binding” value in assay [2] turned out to be 3.1 µM.

Take `CC(C)(C)NC(=O)CN(C(=O)CCCC(N)=O)[C@H](CB(O)O)c1ccccc1` [3f, (R)-(2-(5-Amino-N-(2-(tert-butylamino)-2-oxoethyl)-5-oxopentanamido)-2-phenylethyl)boronic Acid]: in assay [2], the “Ligand Concentration Displaying: / Binding” value is 1 µM.

Take `NC(=O)CCC(=O)N(CC(=O)NCc1ccccc1)[C@H](CB(O)O)c1ccccc1` [3c, (R)-(2-(4-Amino-N-(2-(benzylamino)-2-oxoethyl)-4-oxobutanamido)-2-phenylethyl)boronic Acid]: in assay [2], the “Ligand Concentration Displaying: / Binding” value is 4 µM.
